Data: patent US11534457B2, “Use of dextran sulfate” (priority 2017, dated 2022)

Key:
[1] = system: MyoF system [differentiated lung myofibroblasts+(TNFα and TGFβ)]; experiment: BioMAP MyoF system; type: cell-based, Human
Text: In this study LMW-DS was characterized by profiling in the BioMAP® Diversity PLUS panel. The BioMAP® panel consists of human primary cell-based systems designed to model different aspects of the human body in an in vitro format. The 12 systems in the BioMAP® Diversity PLUS panel (Table 32) allow test agent characterization in an unbiased way across a broad set of systems modeling various human disease states. The BioMA®P systems are constructed with one or more primary cell types from healthy human donors, with stimuli, such as cytokines or growth factors, added to capture relevant signaling networks that naturally occur in human tissue or pathological conditions. […]
Systems are derived from either single cell types or co-culture systems. […] Test agents prepared in either DMSO (small molecules; final concentration 0.1%) or PBS (biologics) are added at the indicated concentrations 1-hr before stimulation, and remain in culture for 24-hrs or as otherwise indicated (48-hrs, MyoF system; 72-hrs, BT system (soluble readouts); 168-hrs, BT system (secreted IgG)). […] Soluble factors from supernatants are quantified using either HTRF® detection, bead-based multiplex immunoassay or capture ELISA. Overt adverse effects of test agents on cell proliferation and viability (cytotoxicity) are detected by sulforhodamine B (SRB) staining, for adherent cells, and alamarBlue® reduction for cells in suspension. […]

human Schwann cells = experiment: PI staining (DNA content, cell cycle, cell numbers, apoptotic fraction), Acumen cytometry; type: cell-based; settings: 0.01 and 0.1 mg/ml
Description: (§1) The study aims were to evaluate the effect of LMW-DS on cell survival and expression of differentiation proteins in three cell types, cerebral cortical neurons, motor neurons and Schwann cells, using two concentrations 0.01 and 0.1 mg/ml of LMW-DS.
(§2) Neurons were cultured as 40,000 cells per well and Schwann cells 3,000 cells per. Cells were treated after 24 hours. The number of cells per well depended on the growth phenotype, proliferative capacity, etc.
Schwann cells growth medium was prepared by adding 10% of fetal bovine serum (FBS, PAA) to high-glucose DMEM and pre-warmed to 37° C. Cells were thawed in a 37° C. water bath for no longer than 2 min. […] Pellet was resuspended in 5 ml of medium and cells were counted with the Cellometer. […]
(§3) LMW-DS was prepared in the culture media of choice for each cell line and added to the respective wells in the doses 0.01 and 0.1 mg/ml. For cell survival assays cells were analyzed after 24 and 48 hours in eight identical wells/dose/time point. Differentiation and protein expression assay was analyzed after 48 hours, also in octuplicates. […]
(§4) The Acumen cytometer allows the direct cytometric analysis of attached cells without prior detachment. […] The protein content of the cells can also be directly measured and expressed as either ‘total protein content’ or ‘mean protein content’.

mouse cortical neurons = experiment: as above; type: cell-based; settings: 0.01 and 0.1 mg/ml
Description: as §1, §2
(§5) PNGM was prepared by adding PNGM Singlequots (Lonza) to PNBM medium and pre-warmed to 37° C. Cells were thawed in a 37° C. water bath for no longer than 2 min and gently transferred into a 15 ml tube. 5 ml of medium was gently added drop-wise. Cell suspension was mixed by inverting the tube carefully twice. Cells were counted with a Cellometer AUTO T4 (Nexcelom Bioscience). 40,000 cells per well were seeded in previously coated 96-well plates. Cells were incubated at 37° C. with 5% CO2. After at 2-hour incubation 80 μl of medium was removed and replaced with 80 μl of fresh medium and cells were allowed to settle for 24 hours before drug treatment.
LMW-DS was prepared in the culture media of choice for each cell line and added to the respective wells in the doses 0.01 and 0.1 mg/ml. For cell survival assays cells were analyzed after 24 and 48 hours in eight identical wells/dose/time point. Differentiation and protein expression assay was analyzed after 48 hours, also in octuplicates.
Cells were fixated in the wells. Propidium iodine was used for viability assay. For immunohistochemical analysis, neurons were stained with βIII-tubulin, which is a tubulin specific for neurons. Schwann cells were stained for Myelin Basic Protein (MBP). For the negative controls PBST (0.1% Triton-X-100 in PBS) was applied instead of primary antibodies.
as §4

[2] = system: βIII-tubulin expression in mouse cortical neurons; experiment: βIII-tubulin immunostaining (differentiation-related protein expression); type: cell-based; settings: 48 h
Description: as §2
as §5, with “After at 2-hour incubation 80 μl of medium was removed and replaced with 80 μl of fresh medium and cells were allowed to settle for 24 hours before drug treatment.” left out
as §3, §4

low molecular weight dextran sulfate [LMW-DS]
biomarker activities modulated [1]: merely IL-8 | Increased biomarker activity ([1]; MyoF system): IL-8 | fraction of apoptotic cells (human Schwann cells): reduced | number of cells in the G2/M phase (PI content) (human Schwann cells): appeared to increase the number of cells in the G2/M phase | cell numbers (mouse cortical neurons): significantly reduced | fraction of apoptotic cells (mouse cortical neurons): increased slightly | number of cells in the G2/M phase (PI content) (mouse cortical neurons; 24 and 48 h): appeared to increase the number of cells in the G2/M phase | βIII-tubulin intensity ([2]; 0.01 and 0.1 mg/ml): significantly increased | size of βIII-tubulin positive cells vs control culture [2]: larger
